1 compound from ChEMBL document CHEMBL1133872, “Modelling studies of the active site of human sorbitol dehydrogenase: an approach to structure-based inhibitor design of the enzyme” (Bioorg Med Chem Lett, 2001) can be followed below.

The structures appear in SMILES notation.

This assay deals with T1, Sorbitol dehydrogenase (Homo sapiens, UniProt Q00796).
T1 sequence (Q00796 whole entry): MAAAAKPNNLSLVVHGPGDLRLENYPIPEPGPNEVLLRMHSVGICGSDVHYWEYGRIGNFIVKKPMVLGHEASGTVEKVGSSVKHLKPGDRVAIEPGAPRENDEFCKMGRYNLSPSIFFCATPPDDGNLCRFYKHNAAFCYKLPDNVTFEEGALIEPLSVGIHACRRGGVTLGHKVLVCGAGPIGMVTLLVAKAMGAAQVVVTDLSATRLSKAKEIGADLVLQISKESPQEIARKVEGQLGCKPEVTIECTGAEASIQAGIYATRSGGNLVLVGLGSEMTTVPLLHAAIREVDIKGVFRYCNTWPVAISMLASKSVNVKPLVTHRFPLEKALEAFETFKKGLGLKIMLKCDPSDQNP
Put plainly: Concentration required for inhibitory activity against human sorbitol dehydrogenase (SDH).

As to `CN(C)S(=O)(=O)N1CCN(c2ccnc(CO)n2)CC1`, the IC50 (as a rule, the point on the concentration scale where inhibition reaches its midpoint) is 1 µM.
